Key:
Mus musculus [1] = assay: The compound was tested in vivo for ring immobility in mice; format: functional
Mus musculus [2] = assay: The compound was tested in vivo for hypothermic activity in mice; format: functional
Mus musculus [3] = assay: The compound was tested in vivo for locomotor activity in mice; format: functional
Mus musculus [4] = assay: The compound was tested in vivo for tail-flick latency in mice; format: functional
Cannabinoid receptor [5] = molecular target: T1, Cannabinoid receptor (Rattus norvegicus, UniProt Q9QZN9+P20272); assay: The compound was tested in vitro for binding activity against THC cannabinoid receptor site, using 3H-CP-55940 as the radioligand.; format: protein assay
Cannabinoid receptor [6] = molecular target: T1, Cannabinoid receptor; assay: The compound was tested in vitro for binding activity against THC cannabinoid receptor site, using 3H-CP-55940 as the radioligand; format: protein assay

SMILES | ED50 (Mus musculus [1]) [mg/kg] | ED50 (Mus musculus [2]) [mg/kg] | ED50 (Mus musculus [3]) [mg/kg] | MPE50 (Mus musculus [4]) [mg/kg] | IC50 (Cannabinoid receptor [5]) [µM] | IC50 (Cannabinoid receptor [6]) [µM]
C=C1CC[C@@H]2[C@@H](C1)c1c(O)cc(CCCCC)cc1OC2(C)C | 24 | 56 | 15 | 5.4 |  | 
CCCCCc1cc(OCCN2CCOCC2)c2c(c1)OC(C)(C)[C@@H]1CC=C(C)C[C@@H]21 | 118 | > 100 | > 100 | >100 | 4.3 | 
CCCCCc1cc(OC)c2c(c1)OC(C)(C)[C@@H]1CCC(C)=C[C@@H]21 | 17 | 267 | > 100 | 116 |  | 10
CCCCCc1cc(OC)c2c(c1)OC(C)(C)[C@@H]1CC=C(C)C[C@@H]21 | > 100 | > 100 | > 100 | 33 |  | 3.2
C=C1CC[C@@H]2[C@@H](C1)c1c(O)cc(CCC)cc1OC2(C)C | > 30 | > 30 | 20 | 15 |  | 1.4
C=C1C[C@H]2c3c(O)cc(CCCCC)cc3OC(C)(C)[C@@H]2C[C@H]1O | 63 | 50 | 20 | 25 |  | 1.2
CCCCCc1cc(O)c2c(c1)OC(C)(C)[C@@H]1CC=C(C)C[C@@H]21 [DELTA-8-TETRAHYDROCANNABINOL] | 5.2 |  | 1.9 | 1.5 |  | 
CCCCCc1cc(O)c2c(c1)OC(C)(C)[C@@H]1CCC(C)=C[C@@H]21 [DRONABINOL] | 1.5 | 1.4 | 1 | 1.4 |  | 

From ChEMBL document CHEMBL1125839, “Synthesis and pharmacological evaluation of ether and related analogues of delta 8-, delta 9-, and delta 9,11-tetrahydrocannabinol” (J Med Chem, 1991)
